Experimental findings from patent publication US9974801B2, “Methods of treating and preventing diseases and disorders of the central nervous system” (The United States of America, as represented by the …, priority 2012, dated 2018) are described below.

The nature of data set [1]: Skull bone permeability analysis (transcranial permeation of fluorescent probes). Type of data set: in vivo, mice. Conditions: applied to intact skull bone as 3 mm bubble; 2P microscopy immediately after loading; FIG. 2. The procedure: Skull bone permeability analysis. For skull bone permeability studies, the following rhodamine-labeled dextrans were placed directly on the intact skull bone for up to 30 min: 3,000 MW (25 mM), 10,000 MW (5 mM), 40,000 MW (1 mM), and 70,000 MW (0.5 mM). SR101 (1 mM), a sulforhodamine dye, was used as a representative of 600 MW compound. Compounds were replenished as needed to prevent drying. Following the incubation period, the skull bone was quickly thinned and imaged. A 3D stack was captured to determine if the fluorescence could be found beneath the skull bone.
This example illustrates the effect of molecular weight of the compounds on the rate of transcranial permeation. To define the time and size of compounds that pass directly through the intact (non-thinned) skull, […] SR101 (600 MW) or different sized rhodamine-dextrans (25 mM 3,000 MW; 5 mM 10,000 MW; 1 mM 40,000 MW; 0.5 mM 70,000 MW) were applied to the skull bone. A 3 mm diameter bubble was left on the skull surface for the amount of time noted in minutes on the y axis of the table above. Because all compounds fluoresced, 2P microscopy was performed immediately after transcranial loading to determine if the compounds were present in the subarachnoid space.

For data set [2], the system named is phagocytic microglia (jellyfish morphology). The data set can be described thus: Phagocytic (jellyfish) microglia after meningeal compression injury, 2P microscopy. Type of data set: in vivo, heterozygous CX3CR1-GFP mice. The settings on record: p<0.05; for percentage of phagocytic (jellyfish) microglia in the imaging field: antagonist in aCSF applied to skull bone 30 min prior to injury, quantified 3 hrs post-injury, vs vehicle, FIG. 3. Here is the method: (§1) Skull Thinning & Compression Injury. For imaging experiments, mice were anesthetized with ketamine (85 mg/kg), xylazine (13 mg/kg), and acepromazine (2 mg/kg) in PBS and maintained at a core temperature of 37° C. The skull bone over the barrel cortex was then thinned to a thickness of ˜30-40 μm as described (PMID: 20134419). For this procedure, the bone was manually thinned over a 30 minute period, and the amount of downward pressure was kept to a minimum. To induce a compression injury, the skull was thinned within 5 min to a thickness of ˜10-15 μm. Once thinned, the blunt of a surgical instrument was used to gently press the pliable skull bone downward. […] In one set of experiments, the skull bone was intentionally cracked to induce a severe injury. Imaging was performed immediately after injury.
Intravital two-photon laser scanning microscopy. Mice with a normally thinned or compressed skull bone were imaged using a Leica SP5 two-photon imaging system (Leica Microsystems, Bannockburn, Ill.) equipped with an 8000 Hz resonant scanner, a 20×/1.0 NA dipping objective, and two Mai Tai HP DeepSee Lasers (SpectraPhysics) tuned to 905, 920 or 970 nm. Fluorescence emission was separated by high efficiency custom dichroic mirrors (Semrock) and collected with a NDD4 external detector (Leica). Stacks of images were acquired using a step size of 1.0 μm to a depth of 150 μm. Time lapse movies were acquired with 1 min intervals between 3D stacks. For all imaging studies, the 20× lens was submerged directly into artificial cerebral spinal fluid (aCSF; 119 mM NaCl, 26.2 mM NaHCO3, 2.5 mm KCl, 1 mM NaH2PO4, 1.3 mM MgCl2, 1.2 mM CaCl2, 0.4% glucose, pH 7.4) placed atop the thinned skull.
Purinergic receptor, connexin hemichannel, and ROS antagonism. Prior to skull thinning, antagonists diluted in aCSF were applied directly to the skull bone, and vehicle was simultaneously applied to the opposite hemisphere to serve as a control. […] Vehicle and purinergic receptor antagonists were applied as a 3 mm diameter bubble on the skull surface and replenished as needed over a 30 min incubation period to prevent drying. This allowed the antagonists to continuously pass through the skull bone. Following the 30 min incubation, the skull was dried and then thinned to induce a compression injury over both hemispheres. Imaging was initiated immediately after injury. For most studies, the skull bone pre-incubated with antagonists was imaged continuously for 3-10 hrs, after which a 3D stack was captured from both the vehicle and antagonist treated areas for quantitative purposes. […] A similar study was conducted using 10 mM CBX.
Image Analysis. All quantitative analyses and processing of 3D/4D imaging data were performed using Imaris 7.0 software (Bitplane). Supplemental movies were constructed and annotated using Adobe Premiere Pro CS4. Microglia “honeycomb” reactions were quantified from 434×434×150 μm (xyz) 3D image stacks obtained at selected time points in CX3CR1^gfp/+ mice. This was accomplished by measuring the total length of microglial processes in contact with the glial limitans. […] Afterward, 10 microglia per mouse were randomly selected for quantification of process length. Only cells with all of their processes in the field of view and no more than 50 μm beneath the skull bone were quantified. Microglial processes that were touching (flat against) the glial limitans were labeled and measured using the Imaris “filaments” tool. […]

The subject of data set [3] is microglia processes associated with the glial limitans. Description: Length of microglial processes in contact with the glial limitans after meningeal compression injury. In kind it is in vivo, mice. The settings on record: for length of microglial processes in contact with the glial limitans: transcranial administration of antagonist before injury, three hours following injury, p<0.05, FIG. 4. Here is the method: as §1
(§2) Intravital two-photon laser scanning microscopy. […] Fluorescence emission was separated by high efficiency custom dichroic mirrors (Semrock) and collected with a NDD4 external detector (Leica). […]
(§3) Purinergic receptor, connexin hemichannel, and ROS antagonism. […] For most studies, the skull bone pre-incubated with antagonists was imaged continuously for 3-10 hrs, after which a 3D stack was captured from both the vehicle and antagonist treated areas for quantitative purposes. […]
Image Analysis. All quantitative analyses and processing of 3D/4D imaging data were performed using Imaris 7.0 software (Bitplane). […] Microglia “honeycomb” reactions were quantified from 434×434×150 μm (xyz) 3D image stacks obtained at selected time points in CX3CR1^gfp/+ mice. […] Afterward, 10 microglia per mouse were randomly selected for quantification of process length. Only cells with all of their processes in the field of view and no more than 50 μm beneath the skull bone were quantified. Microglial processes that were touching (flat against) the glial limitans were labeled and measured using the Imaris “filaments” tool. […]

The subject of data set [4] is neutrophils. Description: Neutrophil recruitment following meningeal compression injury. Type of data set: in vivo, LysM-GFP transgenic reporter mouse. Conditions: p<0.05. Here is the method: Skull Thinning & Compression Injury. For imaging experiments, mice were anesthetized with ketamine (85 mg/kg), xylazine (13 mg/kg), and acepromazine (2 mg/kg) in PBS and maintained at a core temperature of 37° C. The skull bone over the barrel cortex was then thinned to a thickness of ˜30-40 μm as described (PMID: 20134419). For this procedure, the bone was manually thinned over a 30 minute period, and the amount of downward pressure was kept to a minimum. To induce a compression injury, the skull was thinned within 5 min to a thickness of ˜10-15 μm. Once thinned, the blunt of a surgical instrument was used to gently press the pliable skull bone downward. […]
as §2, §3
Image Analysis. All quantitative analyses and processing of 3D/4D imaging data were performed using Imaris 7.0 software (Bitplane). […] Afterward, 10 microglia per mouse were randomly selected for quantification of process length. […]

For `O=S(=O)([O-])c1cc(S(=O)(=O)O)ccc1C1=c2cc3c4c(c2Oc2c1cc1c5c2CCCN5CCC1)CCC[N+]=4CCC3` [SR101], in data set [1], the “rate of passage through the skull into the subarachnoid space” value is recorded as “pass through the skull more quickly than larger compounds”.
For `S=C=Nc1cccc(NC(=S)NCCCCNC(=S)Nc2cccc(N=C=S)c2)c1` [MRS2578], the “percentage of phagocytic (jellyfish) microglia in the imaging field” value (“percentage of phagocytic” for short) in data set [2] is reported as “significantly reduced”.
For the compound `N[C@@H](CCC(=O)N[C@@H](CS)C(=O)NCC(=O)O)C(=O)O` [glutathione], the “formation of phagocytic (jellyfish) microglia following injury” value in data set [2] (pretreatment with 100 mM, transcranial, FIG. 9) is listed as “eliminated the formation”. Besides, the “microglia extending their processes and contacting the glial limitans” value in data set [3] (pretreatment with 100 mM, transcranial, FIG. 10) is recorded as “completely prevented”. Also, the “recruitment of neutrophils following compression injury” value in data set [4] (pretreatment with 100 mM, transcranial, FIG. 8) was “significantly reduced”.
“trinitrophenyl-ATP hydrate [TNP-ATP hydrate]”: the “percentage of phagocytic” value in data set [2] is given as “significantly reduced”. Besides, in data set [3], the “length of microglial processes in contact with the glial limitans” value is “significantly reduced”.
As to `Nc1ncnc2c1ncn2[C@@H](C=O)O[C@@H](C=O)COP(=O)(O)OP(=O)(O)OP(=O)(O)O` [oxidized ATP], in data set [2], the “percentage of phagocytic” value is “not”. Moreover, in data set [4] (transcranial P2X7 antagonist applied to skull before injury, FIG. 5), the “neutrophil recruitment to the injury site” value is “completely blocked”.
Turning to `CSc1nc(N)c2ncn([C@@H]3O[C@H](COP(=O)(O)O)[C@@H](O)[C@H]3O)c2n1` [MeSAMP], in data set [2], the “percentage of phagocytic” value is reported as “significantly reduced”. Further, the “length of microglial processes in contact with the glial limitans” value in data set [3] was “significantly reduced”.
